In PMC10287695, “Non-covalent inhibitors of thioredoxin glutathione reductase with schistosomicidal activity in vivo” (Nature Communications, 2023):

How the values were obtained:
S. mansoni TGR = biological target: T1, S. mansoni TGR (Schistosoma mansoni, UniProt Q962Y6); experiment: S. mansoni TGR enzyme inhibition (DTNB reduction); format: biochemical; settings: for % inhibition: TGR
T1 construct: made in house
T1 sequence (Q962Y6 1-598): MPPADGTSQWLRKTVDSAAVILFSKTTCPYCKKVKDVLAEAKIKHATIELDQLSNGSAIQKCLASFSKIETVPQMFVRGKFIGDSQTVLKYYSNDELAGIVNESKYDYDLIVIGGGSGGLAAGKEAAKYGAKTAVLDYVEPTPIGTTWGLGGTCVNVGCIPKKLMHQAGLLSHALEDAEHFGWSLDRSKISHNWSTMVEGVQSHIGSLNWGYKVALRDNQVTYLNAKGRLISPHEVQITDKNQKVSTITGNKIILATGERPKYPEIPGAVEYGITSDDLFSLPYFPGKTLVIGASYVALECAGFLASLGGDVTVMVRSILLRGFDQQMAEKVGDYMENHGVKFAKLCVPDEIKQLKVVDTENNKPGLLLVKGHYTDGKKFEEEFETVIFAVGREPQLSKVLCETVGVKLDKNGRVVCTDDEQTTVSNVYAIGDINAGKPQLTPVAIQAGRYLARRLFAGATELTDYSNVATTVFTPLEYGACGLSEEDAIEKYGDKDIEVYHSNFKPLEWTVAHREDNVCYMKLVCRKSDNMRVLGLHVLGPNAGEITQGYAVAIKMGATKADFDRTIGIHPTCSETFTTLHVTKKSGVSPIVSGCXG
Method: (§1) Recombinant TGR, human TrxR1, B. malayi (Bm)TrxR and human GR proteins were expressed and purified as described[20],[69],[79]. The codon optimized sequence for P. falciparum (PfTrxR, https://www.ncbi.nlm.nih.gov/protein/CAA60574.1/) with an N-terminal 6-His tag was synthesized and inserted into pET15b (GenScript) and expressed in BL21 (DE3) cells and purified as described for human GR[20]. TGR and TrxR enzyme inhibition assays were performed in triplicate at 25 °C as described[20] in 0.1 M potassium phosphate (pH 7.4), 10 mM EDTA, 100 µM NADPH and 0.01% Tween-20. […] The reaction was started with addition of an equal volume of DTNB (6 mM) and NADPH (100 µM) and the increase in A412 during the first 3 min was recorded. […] The reaction was preincubated for 15 min. Activity was initiated with the addition of 1 mM GSSG and 100 μM NADPH and initial rates of NADPH oxidation were monitored at 340 nm. The reactions were done in triplicate. The IC50 was calculated in GraphPad Prism.

Human GR = biological target: T2, Human GR (Homo sapiens, UniProt P00390); experiment: Human GR enzyme inhibition (GSSG reduction, NADPH oxidation); format: biochemical; settings: for % inhibition: hGR
T2 construct: made in house
T2 sequence (P00390 44-522): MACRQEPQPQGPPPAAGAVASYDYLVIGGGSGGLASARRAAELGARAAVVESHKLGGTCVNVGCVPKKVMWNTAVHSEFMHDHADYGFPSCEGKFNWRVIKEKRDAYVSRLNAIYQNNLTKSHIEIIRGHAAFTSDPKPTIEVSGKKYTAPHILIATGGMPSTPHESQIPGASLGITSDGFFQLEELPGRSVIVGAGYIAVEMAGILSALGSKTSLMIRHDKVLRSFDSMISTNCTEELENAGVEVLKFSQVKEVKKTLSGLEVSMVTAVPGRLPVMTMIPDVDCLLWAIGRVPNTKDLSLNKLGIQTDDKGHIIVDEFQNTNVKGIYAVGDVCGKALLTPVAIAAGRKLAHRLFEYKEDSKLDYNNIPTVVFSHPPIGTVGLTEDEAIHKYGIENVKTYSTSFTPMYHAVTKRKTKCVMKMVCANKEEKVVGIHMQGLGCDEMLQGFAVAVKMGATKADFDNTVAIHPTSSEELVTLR
Method: Recombinant TGR, human TrxR1, B. malayi (Bm)TrxR and human GR proteins were expressed and purified as described[20],[69],[79]. The codon optimized sequence for P. falciparum (PfTrxR, https://www.ncbi.nlm.nih.gov/protein/CAA60574.1/) with an N-terminal 6-His tag was synthesized and inserted into pET15b (GenScript) and expressed in BL21 (DE3) cells and purified as described for human GR[20]. TGR and TrxR enzyme inhibition assays were performed in triplicate at 25 °C as described[20] in 0.1 M potassium phosphate (pH 7.4), 10 mM EDTA, 100 µM NADPH and 0.01% Tween-20. TGR, human TrxR1 and BmTrxR (all at 4 nM) and PfTrxR (50 nM) were preincubated with the compounds for 15 min. The reaction was started with addition of an equal volume of DTNB (6 mM) and NADPH (100 µM) and the increase in A412 during the first 3 min was recorded. […] […] Activity was initiated with the addition of 1 mM GSSG and 100 μM NADPH and initial rates of NADPH oxidation were monitored at 340 nm. The reactions were done in triplicate. The IC50 was calculated in GraphPad Prism.

[1] = system: S. mansoni newly transformed schistosomula (NTS); experiment: Schistosomicidal activity ex vivo, NTS (Cell Titer Glo); format: cell-based; settings: S. mansoni NTS
Method: Oncomelania hupensis subsp. hupensis, Chinese strain, infected with S. japonicum, Chinese strain, and Biomphalaria glabrata, strain NMRI, infected with S. mansoni, strain NMRI, were provided by the NIAID Schistosomiasis Resource Center for distribution through BEI Resources, NIAID, NIH. After infections were patent, snails were exposed to bright light for 1 hr to obtain cercariae. Cercariae were mechanically transformed to schistosomula. Briefly, cercariae were placed on ice for 30 min and then centrifuged at 350 × g for 10 mins. The supernatant was decanted and 2 ml of serum-free M199 medium was added to cercarial pellets and vortexed for 1 min until cercarial tails were detached. NTS were purified by layering on 4 °C Percoll gradient suspension containing Eagle’s minimum essential medium, penicillin-streptomycin (10,000 U per ml penicillin/10,000 U per ml streptomycin), and 1 M HEPES in 0.85% NaCl with cercariae suspension and centrifuged at 500 × g for 15 min. Cercarial pellets were resuspended and washed thrice in serum-free M199 medium and collected at 100 × g for 5 min. NTS (240) were transferred to U-bottom 96 well assay plates containing 200 µl of M199 medium supplemented with 5.5 mM D-glucose, penicillin-streptomycin and 5% heat inactivated fetal bovine serum and incubated at 37 °C in a 5% CO2 incubator overnight.
DMSO formulated compounds were diluted with phenol red free M199 medium or RPMI medium for NTS or juvenile and adult worms, respectively, at <1% DMSO final concentrations. NTS, juvenile and adult worms from overnight cultures were tested against compounds in triplicate. Controls were treated with DMSO alone or 5 µM AF as a positive control in appropriate medium. Worm viability was assessed at 24 or 72 h by measuring ATP content of worms using Cell Titer Glo Assay (Promega) as described. Schistosome viabilities in the presence of the compounds were assessed using this formula: % Viability = Averages of Test / Averages of DMSO Control x 100.

Vero cells = experiment: Cytotoxicity in mammalian cells (Cell Titer Glo); format: cell-based; settings: Vero cells
Method: Following overnight incubation, formulated DMSO-compound stock solutions were diluted with DMEM at <1% DMSO final concentrations. […] Vero cells treated similarly with different concentrations of PZQ, MZM and AF (Cayman Chemicals) were used as positive controls.

Human TrxR1 = biological target: T3, Human TrxR1 (Homo sapiens, UniProt Q16881); experiment: Human TrxR1 enzyme inhibition (DTNB reduction); format: biochemical; settings: 15 minutes pre-incubation
T3 construct: made in house
T3 sequence (Q16881 1-499 isoform Q16881-5): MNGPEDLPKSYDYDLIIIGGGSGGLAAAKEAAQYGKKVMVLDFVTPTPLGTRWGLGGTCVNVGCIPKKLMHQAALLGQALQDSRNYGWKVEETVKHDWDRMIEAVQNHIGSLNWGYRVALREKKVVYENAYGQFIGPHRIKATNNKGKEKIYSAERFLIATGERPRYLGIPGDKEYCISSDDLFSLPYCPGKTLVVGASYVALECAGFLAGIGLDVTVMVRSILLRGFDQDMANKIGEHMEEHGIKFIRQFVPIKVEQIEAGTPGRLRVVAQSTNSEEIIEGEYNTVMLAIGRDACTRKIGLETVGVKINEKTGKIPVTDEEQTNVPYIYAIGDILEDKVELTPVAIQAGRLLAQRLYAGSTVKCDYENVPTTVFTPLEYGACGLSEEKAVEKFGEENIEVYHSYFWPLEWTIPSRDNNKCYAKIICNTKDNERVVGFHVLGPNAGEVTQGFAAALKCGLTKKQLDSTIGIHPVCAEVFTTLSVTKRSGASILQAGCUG
Method: as §1

[2] = 15 minutes pre-incubation, compound 15 µM
[3] = 15 minutes pre-incubation, compound 30 µM
[4] = 15 minutes pre-incubation, compound 66.7 µM
[5] = 6 hours pre-incubation, compound 15 µM
[6] = 6 hours pre-incubation, compound 30 µM
[7] = 6 hours pre-incubation, compound 66.7 µM
[8] = 15 minutes pre-incubation, 15 µM
[9] = 15 minutes pre-incubation, 30 µM
[10] = 15 minutes pre-incubation, 66.7 µM

Cc1oc(C2CCCCC2)nc1CN[C@@H]1C[C@@H]2C[C@H]([C@H]1C)C2(C)C [C4]
% inhibition (S. mansoni TGR; [2]): 4.307%
% inhibition (S. mansoni TGR; [3]): 7.284%
% inhibition (S. mansoni TGR; [4]): 12.4488%
% inhibition (S. mansoni TGR; [5]): 20.5703%
% inhibition (S. mansoni TGR; [6]): 43.128%
% inhibition (S. mansoni TGR; [7]): 68.6238%
% inhibition (Human GR; [2]): -0.5314%
% inhibition (Human GR; [3]): -1.471%
% inhibition (Human GR; [4]): -0.894%
% inhibition (Human GR; [5]): -2.859%
% inhibition (Human GR; [6]): -0.4408%
% inhibition (Human GR; [7]): -0.3554%
% viability ([1]; Conc. 1 µM): 51.9254%
% viability ([1]; Conc. 5 µM): 22.4326%
% viability ([1]; Conc. 15 µM): 2.552%
% viability ([1]; Conc. 30 µM): 0.3078%
% viability ([1]; Conc. 50 µM): 0.1166%
% viability (Vero cells; Conc. 5 µM): 99.7864%
% viability (Vero cells; Conc. 10 µM): 99.8193%
% viability (Vero cells; Conc. 25 µM): 95.3884%
% viability (Vero cells; Conc. 35 µM): 94.379%
% viability (Vero cells; Conc. 50 µM): 91.2714%

C[C@@H]1[C@H]2C[C@@H](C[C@H]1NC(=O)Cc1nc3ccccc3n1C1CCCCC1)C2(C)C [C10]
TGR % inhibition (S. mansoni TGR; 15 minutes pre-incubation, 1 µM): 1.833%
TGR % inhibition (S. mansoni TGR; 15 minutes pre-incubation, 5 µM): 5.968%
TGR % inhibition (S. mansoni TGR; [8]): 42.2698%
TGR % inhibition (S. mansoni TGR; [9]): 76.1929%
TGR % inhibition (S. mansoni TGR; [10]): 82.1691%
hsTrxR % inhibition (Human TrxR1; 1 µM): 3.958%
hsTrxR % inhibition (Human TrxR1; 5 µM): 29.0366%
hsTrxR % inhibition (Human TrxR1; 15 µM): 63.1349%
hsTrxR % inhibition (Human TrxR1; 30 µM): 85.1161%
hsTrxR % inhibition (Human TrxR1; 66.7 µM): 92.1898%
hGR % inhibition (Human GR; [8]): -6.32%
hGR % inhibition (Human GR; [9]): -6.329%
hGR % inhibition (Human GR; [10]): 1.247%
hGR % inhibition (Human GR; 6 hours pre-incubation, 15 µM): -1.804%
hGR % inhibition (Human GR; 6 hours pre-incubation, 30 µM): -1.476%
hGR % inhibition (Human GR; 6 hours pre-incubation, 66.7 µM): -1.27%
